Test results as given in paper PMC8245855 (Acta Pharmaceutica Sinica. B, 2021).
Read-outs that look alike come from different tables or passages of the source. One block for each compound: values may come before it.

Columns and labels:
5-LOX [1] = details: cited from earlier work; for IC50: read-out: IC50, 5-LOX
[2] = system: human neutrophils or macrophages; details: cited from earlier work
5-LOX [3] = biological target: T1, 5-LOX (Homo sapiens, UniProt P09917); assay: 5-LOX product formation in activated PMNL; type: cell-based; details: for IC50: read-out: IC50, 5-LOX product formation, activated PMNL, A23187 plus arachidonic acid
T1 sequence (P09917 1-674): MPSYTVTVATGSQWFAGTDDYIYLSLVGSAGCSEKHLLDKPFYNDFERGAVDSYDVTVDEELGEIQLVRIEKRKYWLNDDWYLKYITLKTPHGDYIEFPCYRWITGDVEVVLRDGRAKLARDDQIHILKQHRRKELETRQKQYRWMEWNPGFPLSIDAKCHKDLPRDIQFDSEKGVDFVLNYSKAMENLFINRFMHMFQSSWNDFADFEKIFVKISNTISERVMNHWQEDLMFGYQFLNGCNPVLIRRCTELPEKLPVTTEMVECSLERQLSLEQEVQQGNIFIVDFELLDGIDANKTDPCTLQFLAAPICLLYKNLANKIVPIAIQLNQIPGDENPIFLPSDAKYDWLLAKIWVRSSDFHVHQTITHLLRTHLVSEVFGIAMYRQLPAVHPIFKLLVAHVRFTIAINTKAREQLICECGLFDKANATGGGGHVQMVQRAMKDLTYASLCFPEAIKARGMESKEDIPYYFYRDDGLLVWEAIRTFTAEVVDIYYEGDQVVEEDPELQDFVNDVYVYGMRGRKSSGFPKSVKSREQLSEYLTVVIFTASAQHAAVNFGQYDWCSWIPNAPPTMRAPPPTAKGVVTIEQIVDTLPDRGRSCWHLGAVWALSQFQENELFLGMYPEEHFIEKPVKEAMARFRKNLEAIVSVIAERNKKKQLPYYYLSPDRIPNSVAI

5-LOX [4] = biological target: T1, 5-LOX; assay: cell-free 5-LOX activity; type: biochemical; details: for IC50: read-out: IC50, human recombinant 5-LOX, arachidonic acid 20 μmol/L
12-LOX = biological target: T2, 12-LOX (Homo sapiens, UniProt P18054); details: 10 μmol/L; human neutrophils; cited from earlier work
T2 sequence (P18054 1-663): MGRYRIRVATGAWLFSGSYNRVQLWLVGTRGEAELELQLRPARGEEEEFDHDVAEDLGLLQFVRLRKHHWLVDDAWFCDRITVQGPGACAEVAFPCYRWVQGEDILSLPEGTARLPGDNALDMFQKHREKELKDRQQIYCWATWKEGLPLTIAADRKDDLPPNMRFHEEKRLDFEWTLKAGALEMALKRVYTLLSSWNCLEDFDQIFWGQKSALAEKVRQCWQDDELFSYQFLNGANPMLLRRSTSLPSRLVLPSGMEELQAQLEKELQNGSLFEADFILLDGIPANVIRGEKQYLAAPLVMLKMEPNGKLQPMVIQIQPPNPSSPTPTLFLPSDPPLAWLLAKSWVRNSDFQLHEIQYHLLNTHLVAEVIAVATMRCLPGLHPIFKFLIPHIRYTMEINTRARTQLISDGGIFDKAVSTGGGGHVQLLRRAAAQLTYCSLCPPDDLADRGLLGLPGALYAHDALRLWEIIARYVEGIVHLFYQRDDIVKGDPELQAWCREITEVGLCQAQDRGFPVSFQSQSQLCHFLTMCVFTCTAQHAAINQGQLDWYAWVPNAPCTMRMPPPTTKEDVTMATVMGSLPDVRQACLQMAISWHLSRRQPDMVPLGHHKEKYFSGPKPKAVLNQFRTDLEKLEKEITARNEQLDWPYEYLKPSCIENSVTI

15-LOX = details: 10 μmol/L; human neutrophils; cited from earlier work
COX-1 = details: read-out: IC50, COX-1; cited from earlier work

Compound: ginkgolic acid
IC50 (5-LOX [1]): 200 nM
SPM formation ([2]; 10 μmol/L): 110%–240%

Compound: Cc1cc(C(C)(C)C)c(O)c(C)c1CC1=NCCN1 [oxymetazoline]
5-LOX product formation (5-LOX [1]; 1000 μmol/L): failed to inhibit
SPM formation ([2]; 400 μmol/L): 130%

IC50 (5-LOX [3]): 800 ± 140 nM
IC50 (5-LOX [4]): 300 ± 70 nM
Compound: COc1ccc(C(CCc2ccc(O)cc2OC)c2cc3c(c(C)c2O)OC(c2ccc(O)cc2)CC3)cc1 (centres unmarked) [Compound 3]

inhibition at 3 µM (5-LOX [3]; PMNL, read-out: inhibition of biosynthesis of 5-LOX metabolites, PMNL): 64.1 ± 6.3%
suppression of 5-LOX product formation, cell-free (5-LOX [4]; 3 μmol/L): 70.7 ± 2.7%
Compound: CC(c1cc2ccccc2s1)N(O)C(N)=O (centres unmarked) [Zileuton, zileuton]

Compound: 3-O-acetyl-11-keto-β-boswellic acid [AKBA]
IC50 (5-LOX [1]): 3000 nM
formation of 12-LOX metabolites (12-LOX): 270%
formation of 15-LOX metabolites (15-LOX): 210%

IC50 (5-LOX [3]): 460 ± 120 nM
IC50 (5-LOX [4]): 900 ± 260 nM
Compound: COc1cc(O)ccc1CCC(c1ccc(O)cc1)c1c(O)c(C)c2c(c1O)C(=O)CC(c1ccc(O)cc1)O2 (centres unmarked) [Compound 4]
